From ChEMBL document CHEMBL1201862, “PubChem BioAssay data set” (2004)
Activity calls are given as the source filed them.

Assays:
[1] = molecular target: Nuclear receptor subfamily 5 group A member 2 (Homo sapiens, UniProt O00482); type: functional, cell-based;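 note: HEK293T cells transfected with LRH-1 and a StAR promoter luciferase reporter; potency for inhibitors that lower LRH-1 driven reporter light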
Steroidogenic factor 1 = Steroidogenic factor 1 (Homo sapiens, UniProt Q13285); assay: Counterscreen for inverse agonists of the liver receptor homolog-1 (LRH-1; NR5A2): Luminescence-based cell-based high throughput dose response assay to identify inverse agonists of the Steroidogenic Factor 1 Nuclear Receptor (SF1; NR5A1).; type: functional
Sequence of Steroidogenic factor 1 (Q13285 whole entry): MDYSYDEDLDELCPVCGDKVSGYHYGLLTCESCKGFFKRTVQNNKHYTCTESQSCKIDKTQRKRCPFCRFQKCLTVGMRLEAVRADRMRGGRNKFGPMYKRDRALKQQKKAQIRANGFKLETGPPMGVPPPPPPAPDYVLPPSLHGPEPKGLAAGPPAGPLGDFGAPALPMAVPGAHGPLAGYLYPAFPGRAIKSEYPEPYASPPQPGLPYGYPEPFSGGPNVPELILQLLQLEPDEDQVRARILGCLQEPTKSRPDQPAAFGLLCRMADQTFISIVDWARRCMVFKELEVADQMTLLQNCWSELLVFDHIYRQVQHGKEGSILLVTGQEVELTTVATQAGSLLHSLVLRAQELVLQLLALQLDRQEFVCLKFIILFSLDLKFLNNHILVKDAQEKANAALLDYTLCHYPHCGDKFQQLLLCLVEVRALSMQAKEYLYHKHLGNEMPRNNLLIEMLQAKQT

[2] = nonselective StAR promoter luciferase inhibitors – cell-based, luminescence, luciferase reporter, counter-screen for LRH-1 inverse agonist project, dose response (AID 651969); type: functional
Melanocortin receptor 4 = Melanocortin receptor 4 (Homo sapiens, UniProt P32245); assay: inhibitors of MC4R cAMP signaling – cell-based, TR-FRET, biased antagonists, dose response (AID 602298); type: functional;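 note: antagonist potency against agonist-stimulated cAMP production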
Sequence of Melanocortin receptor 4 (P32245 whole entry): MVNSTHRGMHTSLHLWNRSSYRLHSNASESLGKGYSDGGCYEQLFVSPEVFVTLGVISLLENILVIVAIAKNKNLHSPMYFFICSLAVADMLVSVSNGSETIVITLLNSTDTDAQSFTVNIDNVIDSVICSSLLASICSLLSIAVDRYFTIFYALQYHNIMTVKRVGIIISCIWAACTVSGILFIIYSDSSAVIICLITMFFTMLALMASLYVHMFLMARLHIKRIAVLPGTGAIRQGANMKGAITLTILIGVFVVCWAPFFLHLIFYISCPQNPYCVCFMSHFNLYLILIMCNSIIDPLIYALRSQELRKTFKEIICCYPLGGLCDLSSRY

[3] = cAMP pathway inhibition in counterscreen cell line – TR-FRET cAMP detection, counter-screen for MC4R biased antagonist project, dose response (AID 602305); type: functional, cell-based;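 note: U2OS cells stimulated with forskolin near its EC80 as the cAMP inducer; potency is for inhibition of forskolin-stimulated cAMP signaling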
[4] = molecular target: Adenosylmethionine-8-amino-7-oxononanoate aminotransferase (Mycobacterium tuberculosis, UniProt P9WQ81); assay: Mycobacterium tuberculosis BioA enzyme inhibitor Measured in Biochemical System Using Plate Reader - 2163-02_Inhibitor_Dose_CherryPick_Activity.; type: functional, Mycobacterium tuberculosis UT205
Sequence of Adenosylmethionine-8-amino-7-oxononanoate aminotransferase (P9WQ81 whole entry): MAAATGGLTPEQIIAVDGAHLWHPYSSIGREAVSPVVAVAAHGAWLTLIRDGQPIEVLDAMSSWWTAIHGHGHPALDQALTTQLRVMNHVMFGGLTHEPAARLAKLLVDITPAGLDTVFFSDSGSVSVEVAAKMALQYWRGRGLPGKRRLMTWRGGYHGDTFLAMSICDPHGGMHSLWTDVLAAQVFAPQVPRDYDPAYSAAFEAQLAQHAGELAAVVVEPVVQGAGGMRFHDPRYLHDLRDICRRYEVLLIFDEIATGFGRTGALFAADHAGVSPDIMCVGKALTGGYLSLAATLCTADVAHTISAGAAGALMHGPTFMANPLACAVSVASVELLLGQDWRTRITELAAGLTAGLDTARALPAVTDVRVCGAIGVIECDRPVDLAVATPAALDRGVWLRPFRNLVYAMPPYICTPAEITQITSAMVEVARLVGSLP

HEK293 = assay: EBV LMP1 TES2 canonical NF-kB signalling blockers – cell-based, HEK293, luciferase, cherry-pick, dose response (AID 588343); type: functional; conditions: Homo sapiens
[5] = molecular target: T1, Latent membrane protein 1 (Human herpesvirus 4 (strain B95-8), UniProt P03230); assay: LMP1 TES1 pathway selectivity over dsRED control – imaging, HEK293T, dual-color eGFP/dsRED, cherry-picks, selectivity assay for LMP1 NF-kB inhibitor project, dose response (AID 588398); type: functional, cell-based
T1 sequence (P03230 whole entry): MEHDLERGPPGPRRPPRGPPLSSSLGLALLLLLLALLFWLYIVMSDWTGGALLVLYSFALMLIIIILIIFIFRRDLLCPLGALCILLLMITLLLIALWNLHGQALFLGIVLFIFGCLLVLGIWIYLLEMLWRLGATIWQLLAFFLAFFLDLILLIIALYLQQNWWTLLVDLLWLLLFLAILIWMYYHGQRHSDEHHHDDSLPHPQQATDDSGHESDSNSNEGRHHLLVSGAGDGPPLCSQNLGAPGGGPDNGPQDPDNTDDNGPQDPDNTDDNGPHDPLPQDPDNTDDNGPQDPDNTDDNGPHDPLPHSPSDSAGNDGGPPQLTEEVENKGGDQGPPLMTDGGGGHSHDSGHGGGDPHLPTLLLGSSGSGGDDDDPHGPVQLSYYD

[6] = Trypanosoma cruzi growth suppression in host cells – NIH3T3 host cells, beta-gal luminescence, confirmation (AID 2044); type: functional, cell-based;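 note: intracellular parasites grown in NIH/3T3 mouse fibroblasts as host cells; luminescent beta-galactosidase reporter signal from transgenic T. cruzi replicating inside host cells; inhibitors lower the luminescence signal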
[7] = NIH3T3 cell viability loss – ATP luminescence, mouse fibroblasts, counter-screen, dose response (AID 2010); type: functional, cell-based;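 note: cells exposed to compound for about 90 hours before reading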

Sequence of Nuclear receptor subfamily 5 group A member 2 (O00482 whole entry): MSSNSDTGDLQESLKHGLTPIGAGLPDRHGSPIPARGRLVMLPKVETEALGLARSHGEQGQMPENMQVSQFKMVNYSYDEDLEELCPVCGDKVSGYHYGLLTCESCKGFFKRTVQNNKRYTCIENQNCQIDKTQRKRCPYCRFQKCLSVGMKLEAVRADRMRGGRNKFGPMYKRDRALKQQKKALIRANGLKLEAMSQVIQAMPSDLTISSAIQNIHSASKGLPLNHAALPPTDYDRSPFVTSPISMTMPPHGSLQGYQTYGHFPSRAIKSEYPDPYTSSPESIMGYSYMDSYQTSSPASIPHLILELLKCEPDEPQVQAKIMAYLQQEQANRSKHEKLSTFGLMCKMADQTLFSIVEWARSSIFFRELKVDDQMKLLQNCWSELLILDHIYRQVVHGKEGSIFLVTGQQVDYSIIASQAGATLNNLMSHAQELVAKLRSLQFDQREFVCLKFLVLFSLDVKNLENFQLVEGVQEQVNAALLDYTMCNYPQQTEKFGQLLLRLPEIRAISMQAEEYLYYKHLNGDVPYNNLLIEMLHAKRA

Row | SMILES | IC50 (Melanocortin receptor 4) | IC50 [3] | AC50 (HEK293) | AC50 [5] | also measured
1 | O=C(CCl)NCCCN(C(=O)C(Cl)Cl)c1ccc([N+](=O)[O-])cc1 |  |  |  |  | IC50 [1]: 7.45 µM (active); IC50 (Steroidogenic factor 1): 4.97 µM (active); IC50 [2]: 18.8 µM (inactive)
2 | O=C1c2cccc([N+](=O)[O-])c2C(=O)N1c1ccccc1 | > 64.6 µM (inactive) | > 64.6 µM (inactive) |  |  | 
3 | COCCNC(=O)C[C@H]1CC[C@@H]2[C@@H](COc3ccc(NC(=O)Nc4cccc(F)c4)cc3C(=O)N2C)O1 |  |  |  |  | AC50 [4]: 5.19 µM (active)
4 | CCOC(=O)CC(NC(=O)C(Cc1ccc(N(CCCl)CCCl)cc1)NC(C)=O)C(=O)OCC (centres undefined) |  |  | 1.65 µM (active) | 16.2 µM (active) | 
5 | O=C1CSC(=S)N1Cc1ccccc1 |  |  | 2.11 µM (active) | 119 µM (active) | 
6 | CCOc1ccc2nc(NC(=O)C3CCCN(S(=O)(=O)c4cccc5nonc45)C3)sc2c1 (centres undefined) | > 64.6 µM (inactive) | > 64.6 µM (inactive) |  |  | EC50 [6]: 2.11 µM (active); EC50 [7]: > 60 µM (not active)
